Measured values as given in patent publication US9925251B2, “Treatments for Mycobacterium tuberculosis” (priority 2011, dated 2018).
“Also recorded” adds a separate entry of the source. Where two headings read alike, the source gives them in different places. Starred links: 1 amine or outer side, 2 acyl side, 3 side chain; linkers in the order of their positions; H or OH if unused. Non-standard residues stand in square brackets, D forms with d. No end group written: not given here. *: point of attachment. Dpa(Dnp) = O=C([C@H](CNc1ccc([N+](=O)[O-])cc1[N+](=O)[O-])N[*:1])[*:2]; Mca = COc1ccc2c(CC(=O)*)cc(=O)oc2c1; Suc = O=C(CCC(=O)[*:2])[*:1]; Nle = CCCC[C@H](N)C(=O)O; Cbz = O=C(OCc1ccccc1)*; amc = not defined here

Tests used:
Mtb ClpP1P2 [1] = biological target: T1, Mtb ClpP1P2 (Mycobacterium tuberculosis, UniProt P9WPC3+P9WPC5); format: biochemical; conditions: for cleavage by ClpP1P2 (in words): activator present
Mtb ClpP1P2 [2] = biological target: T1, Mtb ClpP1P2; assay: biochemical; format: biochemical
ClpC1 ATPase = ClpC1 ATPase (Mycobacterium tuberculosis, UniProt P9WPC9); format: biochemical
Chain of ClpC1 ATPase (P9WPC9 whole entry): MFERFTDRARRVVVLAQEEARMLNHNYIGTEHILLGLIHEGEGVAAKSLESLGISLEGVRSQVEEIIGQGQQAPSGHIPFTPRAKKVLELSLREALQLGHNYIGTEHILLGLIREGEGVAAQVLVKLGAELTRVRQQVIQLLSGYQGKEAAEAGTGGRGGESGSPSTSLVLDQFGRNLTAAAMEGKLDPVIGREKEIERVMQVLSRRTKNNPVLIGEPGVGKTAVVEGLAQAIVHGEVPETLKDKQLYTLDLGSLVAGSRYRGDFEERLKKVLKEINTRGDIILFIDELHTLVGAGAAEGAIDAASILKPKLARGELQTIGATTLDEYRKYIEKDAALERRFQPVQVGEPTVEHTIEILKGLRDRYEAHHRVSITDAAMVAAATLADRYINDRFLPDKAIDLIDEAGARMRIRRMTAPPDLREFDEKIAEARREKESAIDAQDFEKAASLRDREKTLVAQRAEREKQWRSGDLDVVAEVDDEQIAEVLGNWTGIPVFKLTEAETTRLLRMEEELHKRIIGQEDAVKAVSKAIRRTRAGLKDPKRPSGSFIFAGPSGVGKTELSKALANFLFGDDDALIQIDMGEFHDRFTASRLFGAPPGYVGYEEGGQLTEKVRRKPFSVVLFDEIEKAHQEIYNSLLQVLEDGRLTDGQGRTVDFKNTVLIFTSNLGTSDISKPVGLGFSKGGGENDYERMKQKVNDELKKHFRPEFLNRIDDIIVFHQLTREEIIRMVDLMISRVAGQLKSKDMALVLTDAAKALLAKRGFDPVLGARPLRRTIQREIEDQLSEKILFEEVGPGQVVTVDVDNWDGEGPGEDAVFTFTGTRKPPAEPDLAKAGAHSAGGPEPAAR

Msm ptet_clpP2 = format: cell-based, Mycobacterium smegmatis; conditions: for growth of strain: sub-MIC concentration
Mtb ClpP1P2 [3] = biological target: T1, Mtb ClpP1P2; format: biochemical
Mtb ClpP1P2 [4] = biological target: T1, Mtb ClpP1P2; format: biochemical; conditions: 10 best substrates each with Met, Leu, Phe, Ala at P1; library screening
[5] = Peptide Aldehydes (0.5 mM), peptidase activity with Z-Gly-Gly-Leu-amc, maximal activation by Z-Leu-Nle-aldehyde taken as 100%
[6] = Peptide Derivatives (1 mM), peptidase activity with Z-Gly-Gly-Leu-amc, Z-Leu-Leu-aldehyde 100.0
[7] = low concentration of ATc (ClpP2 partially depleted)
[8] = substance is the substrate, Z-Gly-Gly-Leu-amc = 100

`Cc1cc(=O)oc2cc(NC(=O)C(C)N)ccc12` (stereo not drawn) [Ala-amc] was tested, and the “RELATIVE RATES OF HYDROLYSIS (%)” value (Mtb ClpP1P2 [1]) was 0.78%.

For `Cc1cc(=O)oc2cc(NC(=O)[C@@H](N)CC(C)C)ccc12` [Leu-amc], the “RELATIVE RATES OF HYDROLYSIS (%)” value (Mtb ClpP1P2 [1]) was 0.36%.

For `Cc1cc(=O)oc2cc(NC(=O)C(N)Cc3ccccc3)ccc12` (stereo not drawn) [Phe-amc], the “RELATIVE RATES OF HYDROLYSIS (%)” value (Mtb ClpP1P2 [1]) was 0.26%.

In the case of `CC(C)C[C@@H](C=O)NC(=O)[C@H](CC(C)C)NC(=O)OCc1ccccc1` [Z-Leu-Leu-aldehyde], the Kd (Mtb ClpP1P2 [2]) is reported as 240 µM, the “RELATIVE ACTIVITY (%)” value (Mtb ClpP1P2 [2]; [5]) is reported as 77.6% and the “RELATIVE ACTIVITY (%)” value (Mtb ClpP1P2 [2]; [6]) is reported as 100.0%. The “stimulation of ClpP1P2 activity (in words)” value (“stimulation” for short) (Mtb ClpP1P2 [2]; against Z-Gly-Gly-Leu-AMC) was “strongest stimulation”.

For `CC(C)C[C@H](NC(=O)[C@H](CC(C)C)NC(=O)OCc1ccccc1)C(=O)O` [Z-Leu-Leu], the “effect on ClpC1 ATPase activity (in words)” value (ClpC1 ATPase) was “did not influence”, the Kd (Mtb ClpP1P2 [2]) was 2200 µM and the “RELATIVE ACTIVITY (%)” value (Mtb ClpP1P2 [2]; Active enzyme diluted (200x) without activator, then activator re-added) was 96.0%. For the same molecule, the “RELATIVE ACTIVITY (%)” value (Mtb ClpP1P2 [2]; Active enzyme diluted (200x), with activator) was 100.0%, the “RELATIVE ACTIVITY (%)” value (Mtb ClpP1P2 [2]; Active enzyme diluted (200x), without activator) was 1.2% and the “RELATIVE ACTIVITY (%)” value (Mtb ClpP1P2 [2]; [6]) was 18.5%. The “stimulation” value (Mtb ClpP1P2 [2]; against Z-Gly-Gly-Leu-AMC) was “could also activate ClpP1P2”.

In the case of `CC(C)C[C@@H](CO)NC(=O)OCc1ccccc1` [Z-Leu-alcohol], the “RELATIVE ACTIVITY (%)” value (Mtb ClpP1P2 [2]) is reported as 2.4%.

With `CC(C)C[C@H](NC(=O)OCc1ccccc1)C(=O)O` [Z-Leu] the “RELATIVE ACTIVITY (%)” value (Mtb ClpP1P2 [2]) was 5.3% and the “stimulation” value (Mtb ClpP1P2 [2]) was “much smaller stimulation”.

With `NCC[C@H](O)C(=O)N[C@@H]1C[C@H](N)[C@@H](O[C@H]2O[C@H](CN)[C@@H](O)[C@H](O)[C@H]2O)[C@H](O)[C@H]1O[C@H]1O[C@H](CO)[C@@H](O)[C@H](N)[C@H]1O` [amikacin] the growth of strain (Msm ptet_clpP2; high concentration of ATc) was “no effect on growth” and the growth of strain (Msm ptet_clpP2; [7]) was “significantly inhibited the growth”.

`O=C(N[C@H](CO)[C@H](O)c1ccc([N+](=O)[O-])cc1)C(Cl)Cl` [chloramphenicol] was tested, and the “viability, low versus high ATc” value (Msm ptet_clpP2; sublethal concentration) was “no difference in viability”.

`O=c1oc(Cl)c(Cl)c2ccccc12` [dichloroisocoumarin] was tested, and the “inhibition of ClpP1P2 activity (in words)” value (Mtb ClpP1P2 [3]) was “sensitive; also recorded: completely inhibit”.

For `Oc1c(Cl)cc(Cl)c(Cl)c1Cc1c(O)c(Cl)cc(Cl)c1Cl` [hexachlorophene], the “effect on ClpC1 ATPase activity (in words)” value (ClpC1 ATPase) was “inhibits” and the “concentration at which the inhibitor works” value (ClpC1 ATPase; inhibition of ClpC1 ATPase activity) was 5 to 10 mM.

`[H]/N=C(/N)N[C@H]1[C@H](O)[C@@H](O)[C@H](O[C@@H]2O[C@@H](C)[C@](O)(C=O)[C@H]2O[C@@H]2O[C@@H](CO)[C@H](O)[C@@H](O)[C@@H]2NC)[C@@H](N/C(N)=N\[H])[C@@H]1O` [streptomycin] was tested, and the growth of strain (Msm ptet_clpP2; high concentration of ATc) was “no effect on growth” and the growth of strain (Msm ptet_clpP2; [7]) was “significantly inhibited the growth”.

Ac-Nle-Pro-Nle-Asp-amc was tested, and the “RELATIVE RATES OF HYDROLYSIS (%)” value (Mtb ClpP1P2 [1]; [8]) was 36.0%.

With Ala-Ala-Phe-amc the “RELATIVE RATES OF HYDROLYSIS (%)” value (Mtb ClpP1P2 [1]; [8]) was 87.0%.

Asp-amc was tested, and the “RELATIVE RATES OF HYDROLYSIS (%)” value (Mtb ClpP1P2 [1]) was 0.1%.

With Cbz-AP[Nle]D-aldehyde the “RELATIVE ACTIVITY (%)” value (Mtb ClpP1P2 [2]; [5]) was 0.8%.

For Cbz-Gly-Gly-Leu, the “RELATIVE ACTIVITY (%)” value (Mtb ClpP1P2 [2]; [6]) was 3.7%.

With Cbz-Gly-Leu-Leu the “stimulation” value (Mtb ClpP1P2 [2]; against Z-Gly-Gly-Leu-AMC) was “much smaller stimulation”.

Cbz-Phe-Tyr-aldehyde was tested, and the “RELATIVE ACTIVITY (%)” value (Mtb ClpP1P2 [2]; [5]) was 1.3%.

In the case of Cbz-Val-Phe-aldehyde, the “RELATIVE ACTIVITY (%)” value (Mtb ClpP1P2 [2]; [5]) is reported as 1.9% and the “stimulation” value (Mtb ClpP1P2 [2]; against Z-Gly-Gly-Leu-AMC) is reported as “did not show any stimulatory capacity”.

With “Mca-GHQQYAMK-Dpa(Dnp)-amide (Mca-GHQQYAMK[Dpa(Dnp)]-NH2)” the “cleavage by ClpP1P2 (in words)” value (Mtb ClpP1P2 [1]; substance is the substrate) was “could cleave”.

With “Mca-GNQQYKMK-Dpa(Dnp)-amide (Mca-GNQQYKMK[Dpa(Dnp)]-NH2)” the “cleavage by ClpP1P2 (in words)” value (Mtb ClpP1P2 [1]; substance is the substrate) was “could cleave”.

“Mca-GNTQFKRR-Dpa(Dnp)-amide (Mca-GNTQFKRR[Dpa(Dnp)]-NH2)” was tested, and the “cleavage by ClpP1P2 (in words)” value (Mtb ClpP1P2 [1]; substance is the substrate) was “could cleave”.

For “Mca-KKPTPIQLN-Dpa(Dnp)-amide (Mca-KKPTPIQLN[Dpa(Dnp)]-NH2)”, the “cleavage by ClpP1P2 (in words)” value (Mtb ClpP1P2 [1]; substance is the substrate) was “could cleave”.

“N-acetyl-Pro-Lys-Met-aminomethylcoumarin [PKM]” was tested, and the “Norm RFU” value (Mtb ClpP1P2 [4]) was 1497.

With Suc-Ala-Ala-Phe-amc the “RELATIVE RATES OF HYDROLYSIS (%)” value (Mtb ClpP1P2 [1]; [8]) was 42.0%.

For “Suc-Ala-Ala-Pro-Ala-amc (Suc-AAPA-amc; reading uncertain)”, the “RELATIVE RATES OF HYDROLYSIS (%)” value (Mtb ClpP1P2 [1]; [8]) was 0.08%.

In the case of “Suc-Ala-Leu-Pro-Phe-amc (Suc-ALPF-amc; reading uncertain)”, the “RELATIVE RATES OF HYDROLYSIS (%)” value (Mtb ClpP1P2 [1]; [8]) is reported as 0.12%.

“Suc-Leu-Leu-Val-Tyr-amc (Suc-LLVY-amc; reading uncertain)” was tested, and the “RELATIVE RATES OF HYDROLYSIS (%)” value (Mtb ClpP1P2 [1]; [8]) was 0.8%.

For Suc-Leu-Tyr-amc, the “RELATIVE RATES OF HYDROLYSIS (%)” value (Mtb ClpP1P2 [1]; [8]) was 11.5%.

In the case of Z-Ala-Ala-Ala-amc, the “RELATIVE RATES OF HYDROLYSIS (%)” value (Mtb ClpP1P2 [1]; [8]) is reported as 3.6%.

In the case of Z-Gly-Gly-Arg-amc, the “RELATIVE RATES OF HYDROLYSIS (%)” value (Mtb ClpP1P2 [1]; [8]) is reported as 0.55%.

For Z-Gly-Gly-Leu-amc, the “RELATIVE RATES OF HYDROLYSIS (%)” value (Mtb ClpP1P2 [1]; [8]) was 100.0%.

Z-Gly-Leu was tested, and the “RELATIVE ACTIVITY (%)” value (Mtb ClpP1P2 [2]; [6]) was 4.8% and the “stimulation” value (Mtb ClpP1P2 [2]; against Z-Gly-Gly-Leu-AMC) was “much smaller stimulation”.

With Z-Leu-Leu-Arg-amc the “RELATIVE RATES OF HYDROLYSIS (%)” value (Mtb ClpP1P2 [1]; [8]) was 0.25%.

Z-Leu-Leu-Glu-amc was tested, and the “RELATIVE RATES OF HYDROLYSIS (%)” value (Mtb ClpP1P2 [1]; [8]) was 0.35%.

For Z-Leu-Leu-Leu-amc, the “RELATIVE RATES OF HYDROLYSIS (%)” value (Mtb ClpP1P2 [1]; [8]) was 0.15%.

With Z-Leu-Leu-alcohol the “RELATIVE ACTIVITY (%)” value (Mtb ClpP1P2 [2]; [6]) was 17.6% and the “stimulation” value (Mtb ClpP1P2 [2]; against Z-Gly-Gly-Leu-AMC) was “could also activate ClpP1P2”.

With Z-Leu-Leu-amc the “RELATIVE RATES OF HYDROLYSIS (%)” value (Mtb ClpP1P2 [1]; [8]) was 4.7%.

With Z-Leu-Leu-leucinal the “stimulation” value (Mtb ClpP1P2 [2]; against Z-Gly-Gly-Leu-AMC) was “significantly less active”.

For Z-Leu-Nle-aldehyde, the “RELATIVE ACTIVITY (%)” value (Mtb ClpP1P2 [2]; [5]) was 100.0%.

For Z-Phe-Val-Arg-amc, the “RELATIVE RATES OF HYDROLYSIS (%)” value (Mtb ClpP1P2 [1]; [8]) was 0.18%.

With Z-Pro-Nlee-Asp-aldehyde the “RELATIVE ACTIVITY (%)” value (Mtb ClpP1P2 [2]; [5]) was 1.2% and the “stimulation” value (Mtb ClpP1P2 [2]; against Z-Gly-Gly-Leu-AMC) was “did not show any stimulatory capacity”.
